Tests used:
Experiment in all cases: Bliss excess, mean over the matrix (fraction); higher = more synergy
[1] = tested on: NCI-H2595 (Mesothelioma)
Procedure, shortened: (§1)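 Bliss excess equals the observed combination effect minus the expected value EA + EB − EA·EB, where EA and EB are the effects of each agent alone. Combination Emax is the second-highest inhibition within the matrix. Inhibition was scaled from CellTiter-Glo 2.0 luminescence, with 0 set by vehicle wells and 1 by blank wells, after 72 hours of two-drug dosing of cells plated in 1536-well plates.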

[2] = tested on: IHH-4 (Thyroid Gland Carcinoma)
Procedure, shortened: as §1

[3] = tested on: KARPAS-1106P (B-Cell Non-Hodgkin's Lymphoma)
Procedure, shortened: as §1

[4] = tested on: KARPAS-620 (Plasma Cell Myeloma)
Procedure, shortened: as §1

[5] = tested on: HT-29 (Colorectal Carcinoma)
Procedure, shortened: as §1

[6] = tested on: SW1088 (Low Grade Glioma)
Procedure, shortened: as §1

[7] = tested on: MFH-ino (Other Solid Carcinomas)
Procedure, shortened: as §1

[8] = tested on: DB (B-Cell Non-Hodgkin's Lymphoma)
Procedure, shortened: as §1

[9] = tested on: DOV13 (Ovarian Carcinoma)
Procedure, shortened: as §1

[10] = tested on: MDA-MB-231 (Breast Carcinoma)
Procedure, shortened: as §1

[11] = tested on: ES7 (Ewing's Sarcoma)
Procedure, shortened: as §1

[12] = tested on: DSH1 (Bladder Carcinoma)
Procedure, shortened: as §1

[13] = tested on: TE-5 (Esophageal Squamous Cell Carcinoma)
Procedure, shortened: as §1

[14] = tested on: G-292-Clone-A141B1 (Osteosarcoma)
Procedure, shortened: as §1

| SMILES | Bliss excess [1] | Bliss excess [2] | Bliss excess [3] | Bliss excess [4] | Bliss excess [5] | Bliss excess [6] | Bliss excess [7] | Bliss excess [8] | Bliss excess [9] | Bliss excess [10] | Bliss excess [11] | Bliss excess [12] | Bliss excess [13] | Bliss excess [14] |
| --- | --- | --- | --- | --- | --- | --- | --- | --- | --- | --- | --- | --- | --- | --- |
| O=C(c1cc(Cc2n[nH]c(=O)c3ccccc23)ccc1F)N1CCN(C(=O)C2CC2)CC1 [Olaparib] + CN(CC[C@H](CSC1=CC=CC=C1)NC2=C(C=C(C=C2)S(=O)(=O)NC(=O)C3=CC=C(C=C3)N4CCC(CC4)[C@H](C5=CC=CC=C5C6=CC=C(C=C6)Cl)O)S(=O)(=O)C(F)(F)F)CCO [AZD4320] (first compound max 10 µM, 7x7, partner max 1 µM) | -0.045 | -0.0368 | -0.035 | 0.0017 | -0.0278 | -0.0518 | -0.0594 | -0.0863 | 0.0543 | -0.071 | 0.0156 | 0.0308 | -0.0436 | -0.0275 |
| O=C(c1cc(Cc2n[nH]c(=O)c3ccccc23)ccc1F)N1CCN(C(=O)C2CC2)CC1 [Olaparib] + COc1nnc2ccc(N3CCC(c4ccc(OCCN5CCN(C)C(=O)[C@H]5C)cc4)CC3)nn12 [AZD5153] (first compound max 10 µM, 7x7, partner max 1 µM) | -0.12 | -0.0058 | -0.0162 | -0.0365 | -0.0406 | -0.0563 | -0.07 | 0.0255 | -0.0778 | -0.0586 | 0.0166 | -0.0925 | -0.052 | -0.0523 |
| O=C(c1cc(Cc2n[nH]c(=O)c3ccccc23)ccc1F)N1CCN(C(=O)C2CC2)CC1 [Olaparib] + Cc1c2c(nn1C)CSCc1cc(n(C)n1)CSc1cc(c3ccccc3c1)OCCCc1c(C(=O)O)n(C)c3c-2c(Cl)ccc13 [AZD5991] (first compound max 10 µM, 7x7, partner max 1 µM) | -0.0396 | -0.0093 | 0.0403 | 0.0121 | -0.0333 | -0.0383 | -0.069 | 0.0141 | -0.0158 | -0.0354 | 0.022 | -0.0097 | -0.0427 | -0.0462 |
| N#Cc1cnc(Nc2cc(NC[C@H]3CNCCO3)c(C(F)(F)F)cn2)cn1 [SRA737] + C=CCn1c(=O)c2cnc(Nc3ccc(N4CCN(C)CC4)cc3)nc2n1-c1cccc(C(C)(C)O)n1 [AZD1775] (first compound max 10 µM, partner max 1 µM) | -0.0688 | 0.14 | 0.0143 | 0.133 | 0.0394 | 0.0681 | -0.013 | 0.0626 | 0.132 | 0.0607 | 0.102 | -0.0441 | 0.0481 | -0.009 |
| N#Cc1cnc(Nc2cc(NC[C@H]3CNCCO3)c(C(F)(F)F)cn2)cn1 [SRA737] + CCc1c2c(nc3ccc(O)cc13)-c1cc3c(c(=O)n1C2)COC(=O)[C@]3(O)CC [SN-38] (first compound max 10 µM, 7x7, partner max 0.3 µM) | -0.0762 | -0.0117 | -0.0918 | 0.0655 | 0.0196 | -0.0339 | -0.0461 | -0.0472 | -0.0469 | -0.0227 | -0.0138 | -0.0809 | -0.0682 | 0.0099 |
| N#Cc1cnc(Nc2cc(NC[C@H]3CNCCO3)c(C(F)(F)F)cn2)cn1 [SRA737] + Nc1ccn([C@@H]2O[C@H](CO)[C@@H](O)C2(F)F)c(=O)n1 [Gemcitabine] (first compound max 10 µM, 7x7, partner max 0.3 µM) | 0.0252 | 0.0649 | 0.0126 | 0.151 | 0.0573 | -0.0658 | -0.0148 | 0.0174 | 0.0821 | 0.105 | 0.0172 | 0.0195 | -0.0151 | 0.0405 |
| N#Cc1cnc(Nc2cc(NC[C@H]3CNCCO3)c(C(F)(F)F)cn2)cn1 [SRA737] + O=c1[nH]cc(F)c(=O)[nH]1 [5-Fluorouracil] (first compound max 10 µM, 7x7, partner max 20 µM) | -0.0448 | 0.098 | 0.0407 | 0.0096 | 0.021 | 0.0081 | 0.0373 | -0.0088 | 0.0258 | -0.0492 | 0.0157 | 0.0051 | 0.0052 | -0.0458 |
| Cc1nc(-c2cn3c(n2)-c2ccc(-c4cnn(C(C)(C)C(N)=O)c4)cc2OCC3)n(C(C)C)n1 [Taselisib] + O=C(Nc1ccc2[nH]nc(-c3ccncc3)c2c1)[C@@H]1CCN(CC(=O)N2CCN(c3ccc(-c4ncccn4)cc3)CC2)C1 [SCH772984] (first compound max 10 µM, 7x7, partner max 5 µM) | -0.0324 | 0.0056 | 0.0391 | 0.116 | 0.111 | -0.0867 | -0.0018 | 0.0783 | 0.0568 | 0.0595 | 0.036 | 0.0051 | 0.113 | -0.0258 |
